Results as given in patent US20240025849A1 (MAX DELBRÜCK-CENTRUM FÜR MOLEKULARE MEDIZIN IN DER …, priority 2020, published 2024).
Entries after “also recorded” stand apart in the source; their conditions may differ.

What was measured:
[1] = tested on: oligodendrocyte cell line OLN-93; assay: AlamarBlue assay in OLN-93 cells; type: cell-based; conditions: 2.5 μM C1, 48 hours, unstimulated
Protocol: Cell culture of immortalized cell lines: microglia cell line BV2, and oligodendrocyte cell line OLN-93. The immortalized murine microglia cell line BV2 (Blasi et al., 1990) and the oligodendrocyte cell line OLN-93 (Richter-Landsberg and Heinrich, 1996) were incubated in T75 flasks with plain medium. The cells were split every 2 to 3 days at the dilution 1:10 before they reached confluence. To do so, the cells were washed twice with PBS, followed by up to 5 min of trypsination. The trypsination was stopped using plain medium. The cells were centrifuged at 300 g for 10 min at 4° C., the supernatant was discarded, and the cells were resuspended in new medium and seeded into a new flask.
AlamarBlue assay. Cells were seeded according to the protocols described above, after compounds and stimuli were added, the cells were washed once with HBSS (37° C.) and 100 μl of a 1:10 AlamarBlue (Thermo Fisher Scientific) dilution in plain medium was added. The conversion of resazurin to resorufin was measured by absorbance (absorbance wavelength of 570 nm and a reference wavelength of 600 nm) after 3 hours.
The inventors evaluated the metabolic activity, proliferation and cell death of primary cultured neonatal microglia, primary cultured neonatal astrocytes and the oligodendrocyte cell line OLN-93 under physiological conditions. […]

[2] = Intravenous tissue distribution study in mice; type: in vivo, mouse
[3] = tested on: primary cultured neonatal microglia; assay: PolyIC induced NO release, Griess assay; type: cell-based, mouse; conditions: for NO concentration, % of stimulated control: 100 μg/ml PolyIC 24 hours
Protocol: Primary cultured neonatal microglia. For preparation of cultured neonatal microglia, P0-P3 mice were used. 10 brains were extracted, meninges and cerebellum were removed and put on ice with Hank's balanced salt solution (HBSS). The dissected brains were washed 3 times before adding 400 μL trypsin (0.1 mg/L) and DNAse (5 μg/L) in phosphate buffered saline (PBS). After 2 min of incubation with this solution, the reaction was blocked by adding plain medium. After removal of the medium, 1 mg DNAse was added and the cells were mechanically dissociated, with a Pasteur pipette followed by a glass pipette. The cells were centrifuged for 10 min at 129 g at 4° C. The supernatant was discarded. The pellet was resuspended in plain medium and plated (2.5 brains/flask) in Poly-L-Lysine coated flasks. The cells were washed after 2 days with PBS and incubated for another 7 days in plain medium. Afterwards the medium was replaced by plain medium with 33% L929 conditioned medium. After 2 days, cells were harvested by shaking them for 30 min at 150 rpm. The supernatant was centrifuged for 10 min at 129 g at 4° C. The cells were plated into a 96 well plate (100 000 cells/well, 200 μL medium per well). This procedure could be repeated 2 times with a 2 day interval.
Griess assay. Cells were seeded according to the protocols described above, after compounds and stimuli were added, 100 μl of supernatant was transferred into a new 96 well plate and 100 μl freshly mixed Griess reagent were added. Griess reagent was composed of reagent A (100 mg Naphthylethylene in 50 ml aqua dest.) and reagent B (1 g Sulfanilamide, […] H3PO4 (85%) in 44 mL aqua dest.) mixed 1:1. The solution was carefully mixed and the absorbance was determined in a microplate reader at a wavelength of 550 nm.
In order to test whether C1 decreases NO release induced by other stimulation agents besides LPS which is mimicking a bacterial infection, the inventors used IFNγ to mimic a Th1 cell response (Yau et al., 2016) and PolyIC to mimic an anti-viral response (Jiang and Pisetsky, 2006). Given that our aim is to determine the compound's effect on already stimulated microglia (LPS, IFNγ, and PolyIC), each individual experiment is normalized to its stimulated control.

For `COc1ccc(NC(=O)C(NC(=O)C2CCCN2C(=O)OCc2ccccc2)c2ccc(OC)cc2)cc1` (centres unmarked) [C1], the “metabolic activity of OLN-93 cells” value [1] was “increased the metabolic activity in oligodendrocytes compared to DMSO (p=0.0431) but not compared to plain medium; also recorded: not affected”, the “passage of the blood brain barrier” value ([2]; 5 mg/kg intravenous) was “passes the blood brain barrier” and the concentration in brain ([2]; 30 minutes after 5 mg/kg intravenous) was 1 μM/g tissue. The concentration in brain ([2]; 4 hours after 5 mg/kg intravenous) was 2.4 nM/g tissue, the “NO concentration, % of stimulated control” value (shortened to “NO concentration, %”) ([3]; 25 nM C1) was 66% and the “NO concentration, %” value ([3]; 250 nM C1) was 29%. The “NO concentration, %” value ([3]; 2.5 μM C1) was 25% and the “NO release upon stimulation with PolyIC” value ([3]; pre-treatment with C1) was “dose dependent decrease”.
